From patent US20240174697A1, “PH-ACTIVABLE FLUORESCENT PROBES FOR TARGETING CELL ORGANELLES” (Purdue Research Foundation, priority 2021, published 2024)

How the values were obtained:
BV2 microglia [1] = assay: Confocal imaging, localization of probes in BV2 microglia; format: cell-based, mouse; details: co-staining LysoTracker Red DND-99 / DAPI
Procedure: BV2 mouse microglia cells were generously gifted by Dr. Linda J. Van Eldik (University of Kentucky, USA). The BV-2 cell line was developed in the lab of Dr. Elisabetta Blasi at the University of Perugia, Italy. Cells were maintained at 37° C. and 5% CO2 in DMEM/Hams F-12 50/50 Mix supplemented with 10% Fetal Bovine Serum (FBS), 1% L-Glutamine, and 1% Penicillin/Streptomycin. For imaging experiments, 70,000 cells/2 mL/well were seeded on glass coverslips (Corning #12-553-450) in 6-well plates (Corning #08-772-1B). For flow cytometry experiments, 20,000 cells/0.5 mL were seeded in 24-well plates (Corning #3526).
(§1) The localization of the fluorescent probes was visualized using confocal microscopy. The cells were incubated with 10 μM probe for 2 hours and then the media was aspirated. The cells were then incubated with 100 nM LysoTracker (1 mM stock from Thermo #L7528) or with 0.5x MitoLite (1000-fold dilution from 500x stock of AAT Bioquest #22678) for 1.5 hours. The media was aspirated, and the cells were fixed with 4% paraformaldehyde for 10 mins followed by nuclear staining with 1 μM/mL DAPI for 5 mins. For BV2 microglia grown on glass coverslips, the coverslips were removed from the wells and transferred to glass slides with a drop of anti-fade reagent (Thermo Fisher Scientific #P36930). For primary mouse microglia grown in 35 mm glass-bottom dishes, the cells were treated with a few drops of the anti-fade reagent and taken for imaging. The images were captured on a Zeiss LSM 880 Upright Confocal microscope equipped with Plan-Apochromat 20x/0.8 objective.

BV2 microglia [2] = assay: LDH cytotoxicity assay on BV2 microglia; format: cell-based, mouse; details: for cytotoxicity (LDH release): 2 hour, any tested doses (1, 5, 10 μM), BV2
Procedure: The dried fluorescent probes powders were resuspended in cell grade DMSO to prepare 5 mM stock solutions. This stock was used to make a 1, 5, or 10 μM dilution of the probe in cell culture media. The diluted probe solutions were filtered through 0.22 µm filters before adding to the cells.
The cytotoxicity of the fluorescent probes was determined using the Invitrogen™ CyQUANT™ LDH Cytotoxicity Assay kit which measures the release of Lactate dehydrogenase (LDH) from the dead and dying cells. The assay was performed per the manufacturer's protocol. Briefly, BV2 cells (5000 cells/100 μL/well) were seeded in a 96 well plate and cultured for 24 hours at 37° C. in a 5% CO2 incubator. After 24 hours, the media was removed, and the cells were treated with 1, 5, or 10 μM of the probes for 2 or 24 hours of incubation. Three additional wells were treated with the given lysis buffer for 45 minutes (positive control). After the corresponding incubation period, the total LDH release was measured using a fluorescent plate reader. The cells without any probe treatment correspond to spontaneous LDH release and were taken as negative control and the cells treated with the lysis buffer correspond to maximum LDH release. The percentage cytotoxicity of the probes was determined as follows: […]

[3] = Absorption and fluorescence spectra at different pH solutions, pKa; format: physicochemical; details: for emission maximum: excitation 480 nm; for emission maximum / absorption maximum: pH solutions of phosphate buffer, 1% DMSO; for pH at which high fluorescence is shown: pH buffer solutions; for pKa: PBS buffer at varying pH, 1% (v/v) DMSO, probe 10 μM, room temperature
Procedure: Spectrum recorded at room temperature in PBS buffer at varying pH with 1% (v/v) of DMSO, in all cases probe concentration=10 μM.
Next, we investigated the absorption and fluorescent properties of LysoShine 1, LysoShine 2, and MitoShine (FIG. 2). The LysoShine 1 in different pH solutions of phosphate buffer (1% DMSO in 1M PBS) has an absorption centered around 500 nm and emission maximum at 505 nm with 480 nm excitation. […] We tested the mitochondrial targeting property of MitoShine (max. absorption 505 nm, max. emission 535 nm, excitation 480 nm). […] We also tested the photophysical property of the important synthetic intermediate compound 10 (absorption maximum 505 nm, max, emission 510 nm at excitation 480 nm).

BV2 microglia [4] = assay: Cellular uptake of the fluorescent probes; format: in vitro ADME, mouse; details: BV2 microglia (FIG. 7)
Procedure: FIG. 7 describes percent uptake efficiency of the fluorescent probes in BV2 microglia. Cellular uptake of the probe at different concentrations after two hours of incubation. The % uptake efficiency was determined as the percentage of probe taken up by cells out of the total amount of probe in the initial incubation solution. Bars depict n=3 data with SD.
Cellular uptake of the florescent probes was determined in-vitro as following: BV2 cells (20,000 cells/well) were seeded in a 96 well plate and cultured overnight at 37° C. in a 5% CO2 incubator. Next day, the media was removed, and the cells were treated with 1, 5, or 10 μM of the probes for 2 hours. After incubation, the supernatant was collected, and the absorbance was recorded at the respective absorbance maxima of the probe. This was compared with absorbance of the probe in media without cells. The percent cellular uptake was calculated as percentage of […]:
% Uptake Efficiency=1-[Asupernatant×100/Aprobe]

[5] = Solubility in aqueous medium / pH solutions; format: physicochemical; details: for solubility upon addition of pH solutions: final DMSO concentration 1%
primary mouse microglia [6] = assay: Confocal imaging, localization of probes in primary microglia; format: cell-based; details: 10 μM probe 2 hours, co-staining LysoTracker / MitoLite / DAPI
Procedure: A detailed protocol for the isolation and culture of primary microglia from adult mouse brains is previously described^2. Briefly, CD11^+ primary microglia were isolated from adult C57BL/6 mice aged 5-7 months of age (both male and female sexes) and cultured as follows. Mice were euthanized with CO2 following the PACUC guidelines, perfused brains were removed and cut into small pieces before homogenizing them in DPBS++with 0.4% DNase-I on the tissue dissociator at 37° C. After filtering the cells through a 70 μm filter, myelin was removed two times, first using gradient centrifugation with Percoll PLUS reagent followed by the use of myelin removal beads on the magnetic column separators. After myelin removal, CD11^+ cells were selected from the single cell suspension using the CD11^+ beads as per the manufacturer's instructions. The CD11^+ cells were finally resuspended in microglia growth media, further diluted in TIC (TGF-β, IL-34, and cholesterol containing) media containing 2% FBS before seeding 0.1×10^6 cells/500 μL/well of a 24-well plate. The cells were maintained at 37° C. and 10% CO2 with half-media change every other day until the day of compound treatment (around 12-14 div). For confocal imaging experiments, around 50,000 cells/2 mL cells were sub-cultured at the center of 35 mm glass-bottom imaging dishes (FluoroDish™ #FD35).
as §1, with “For primary mouse microglia grown in 35 mm glass-bottom dishes, the cells were treated with a few drops of the anti-fade reagent and taken for imaging. The images were captured on a Zeiss LSM 880 Upright Confocal microscope equipped with Plan-Apochromat 20x/0.8 objective.” left out

primary mouse microglia [7] = assay: Flow cytometry analysis of probe fluorescence in live cells; format: cell-based; details: 10 μM, 2 hours
Text: FIGS. 3A-3E. […] Modal corresponds to a percentage of the maximum count. […] US Ctrl is unstained control. Gating strategy and flow plots with commercial dyes in supporting information.
A detailed protocol for the isolation and culture of primary microglia from adult mouse brains is previously described^2. Briefly, CD11^+ primary microglia were isolated from adult C57BL/6 mice aged 5-7 months of age (both male and female sexes) and cultured as follows. Mice were euthanized with CO2 following the PACUC guidelines, perfused brains were removed and cut into small pieces before homogenizing them in DPBS++with 0.4% DNase-I on the tissue dissociator at 37° C. After filtering the cells through a 70 μm filter, myelin was removed two times, first using gradient centrifugation with Percoll PLUS reagent followed by the use of myelin removal beads on the magnetic column separators. After myelin removal, CD11^+ cells were selected from the single cell suspension using the CD11^+ beads as per the manufacturer's instructions. […]
Primary mouse microglia were treated with 1, 5, or 10 μM fluorescent probes for 2 hours for the cells to uptake the probe. […] Around 10-20 thousand cells were gated from the live cells in order to analyze the cellular fluorescence signal corresponding to the LysoShine/Lysotracker or Mitoshine/MitoLite probes.

Compound	localization of the probe within cell organelles (BV2 microglia [1])	cytotoxicity to BV2 cells (BV2 microglia [2]; BV2 cells)	emission maximum [3]	pH at which high fluorescence is shown [3]	absorption maximum [3]	cell permeability (BV2 microglia [4])	cytotoxicity (LDH release) (BV2 microglia [2])	pKa [3]	solubility upon addition of pH solutions [5]	localization of the probe within cell organelles (primary mouse microglia [6])	fluorescence spectrum in pH buffers ([3]; pH buffers, solubility affected)	solubility in aqueous medium ([5]; aqueous medium)	fluorescent intensity within the cells (primary mouse microglia [7])
CCOC(=O)C1=C(C)C2=C(c3ccc(NC(=O)CBr)cc3)c3c(C)c(C(=O)OCC)c(C)n3[B-](F)(F)[N+]2=C1C [Compound 10, Diethyl 10-(4-(2-bromoacetamido)phenyl)-5,5-difluoro-1,3,7,9-tetramethyl-5H-414,514-dipyrrolo[1,2-c:2′,1′-f][1,3,2]diazaborinine-2,8-dicarboxylate]	colocalized with nuclei staining dye DAPI	not cytotoxic	510 nm	less than 3	505 nm	cell permeable							
CCOC(=O)C1=C(C)C2=C(c3ccc(NC(=O)CNCCN4CCOCC4)cc3)c3c(C)c(C(=O)OCC)c(C)n3[B-](F)(F)[N+]2=C1C [LysoShine 2, Diethyl 5,5-difluoro-1,3,7,9-tetramethyl-10-(4-(2-((2-morpholinoethyl)amino)acetamido)phenyl)-5H-4λ^4, 5λ^4-dipyrrolo[1,2-c:2′,1′-f][1,3,2]diaza-borinine-2,8-dicarboxylate]	co-colocalization		512 nm	less than 6	500 nm		did not show any cytotoxicity	6.0	maintains its solubility	co-localized with the LysoTracker dye within the acidic lysosomes			
CCOC(=O)C1=C(C)C2=C(c3ccc(N(C)C)cc3)c3c(C)c(C(=O)OCC)c(C)n3[B-](F)(F)[N+]2=C1C [Compound 5, Diethyl 10-(4-(dimethylamino)phenyl)-5,5-difluoro-1,3,7,9-tetramethyl-5H-4λ^4, 5λ^4-dipyrrolo[1,2-c:2′,1′-f][1,3,2]diazaborinine-2,8-dicarboxylate]				≤ 2.0									
CCOC(=O)C1=C(C)C2=C(c3ccc(N(C)C)cc3)c3c(C)c(C(=O)OCC)c(C=Cc4ccc(O)cc4)n3[B-](F)(F)[N+]2=C1C [Compound 6a, Diethyl (E)-10-(4-(dimethylamino)phenyl)-5,5-difluoro-3-(4-hydroxystyryl)-1,7,9-trimethyl-5H-414,514-dipyrrolo[1,2-c:2′,1′-f][1,3,2]diazaborinine-2,8-dicarboxylate]											did not generate a fluorescence spectrum	sparingly soluble	
CCOC(=O)C1=C(C)C2=C(c3ccc(NC(=O)CN(CC)CC)cc3)c3c(C)c(C(=O)OCC)c(C)n3[B-](F)(F)[N+]2=C1C [LysoShine 1, Diethyl 10-(4-(2-(diethylamino)acetamido)phenyl)-5,5-difluoro-1,3,7,9-tetramethyl-5H-4λ^4, 5λ^4-dipyrrolo[1,2-c:2′, 1′-f][1,3,2]diazaborinine-2,8-dicarboxylate]	co-colocalization		505 nm	4	around 500 nm		did not show any cytotoxicity	5.4	maintains its solubility	co-localized with the LysoTracker dye within the acidic lysosomes			higher fluorescent intensity than LysoShine 2
